MIC data for 1 compound are collected here from patent US5447925A, “Antibiotic compounds” (Imperial Chemical Industries PLC, priority 1991, dated 1995).

What all share (assay type): cell-based
The subject of assay [1] is P. aeruginosa PU21 (101028). The experiment in a line: MIC by agar dilution, P. aeruginosa PU21 (101028). The conditions noted are these: Pseudomonas aeruginosa, Diagnostic Sensitivity Test agar, inoculum 10^4 CFU/spot. From the text:
(§1) The pharmaceutically acceptable carbapenem compounds of the present invention are useful antibacterial agents having a broad spectrum of activity in vitro against standard laboratory microorganisms, both Gram-negative and Gram-positive, which are used to screen for activity against pathogenic bacteria. The antibacterial spectrum and potency of a particular compound may be determined in a standard test system. In particular the carbapenems of the present invention show good stability to beta-lactamases and have particularly high activity in vitro against strains of Pseudomonas aeruginosa and other Gram-negative aerobic bacteria.
(§2) The following results were obtained for representative compounds on a standard in vitro test system using Diagnostic Sensitivity Test agar medium. The antibacterial activity is described in terms of the minimum inhibitory concentration (M1C) determined by the agar-dilution technique with an inoculum size of 10^4 CFU/spot.
(In general: In agar dilution, organisms are placed on agar that contains the substance at set levels.)

In assay [2] the test system is Ent. cloacae P99^- (401054). Kind of assay: MIC by agar dilution, Ent. cloacae P99^- (401054). Particulars: Enterobacter cloacae.
Description: as §1, §2

Assay [3] concerns Serr. marcesens (421003). The experiment in a line: MIC by agar dilution, Serr. marcesens (421003). The conditions noted are these: Diagnostic Sensitivity Test agar, inoculum 10^4 CFU/spot.
Description: as §1, §2

Assay [4] has as its system Pr. morganii (433001). The experiment in a line: MIC by agar dilution, Pr. morganii (433001). The conditions noted are these: Morganella morganii, Diagnostic Sensitivity Test agar, inoculum 10^4 CFU/spot.
Description: as §1, §2

The test system of assay [5] is E. coli DCO (341098). Kind of assay: MIC by agar dilution, E. coli DCO (341098). Particulars: Escherichia coli, Diagnostic Sensitivity Test agar, inoculum 10^4 CFU/spot.
Description: as §1, §2

Assay [6] relates to St. aureus 147N (601052). The experiment in a line: MIC by agar dilution, St. aureus 147N (601052). Particulars: Staphylococcus aureus, Diagnostic Sensitivity Test agar, inoculum 10^4 CFU/spot.
Description: as §1, §2

Assay [7] relates to S. dublin (369001). Kind of assay: MIC by agar dilution, S. dublin (369001). The conditions noted are these: Salmonella enterica, Diagnostic Sensitivity Test agar, inoculum 10^4 CFU/spot.
Description: as §1, §2

The test system of assay [8] is Strep. pyogenes (681018). Kind of assay: MIC by agar dilution, Strep. pyogenes (681018). Particulars: Streptococcus pyogenes, Diagnostic Sensitivity Test agar, inoculum 10^4 CFU/spot.
Description: as §1, §2

The test system of assay [9] is P. aeruginosa 18S (101024). The experiment in a line: MIC by agar dilution, P. aeruginosa 18S (101024). Particulars: Pseudomonas aeruginosa, Diagnostic Sensitivity Test agar, inoculum 10^4 CFU/spot.
Description: as §1, §2

Assay [10] has as its system P. aeruginosa 18S IMIR (101148). Kind of assay: MIC by agar dilution, P. aeruginosa 18S IMIR (101148). The conditions noted are these: Pseudomonas aeruginosa.
Description: as §1, §2

The test system of assay [11] is B. fragilis AMP R (542008). The experiment in a line: MIC by agar dilution, B. fragilis AMP R (542008). The conditions noted are these: Bacteroides fragilis, Diagnostic Sensitivity Test agar, inoculum 10^4 CFU/spot.
Description: as §1, §2

In brackets after ≈: the same amount, converted by molar mass.

As a reminder, the MIC is the least concentration at which growth counts as inhibited. Take `C[C@@H](O)[C@H]1C(=O)N2C(C(=O)O)=C(S[C@@H]3CN[C@H](CNC(=O)c4cc(O)c(O)c(C#N)c4)C3)[C@H](C)[C@H]12` [Example 3, (1R,5R,6S,8R,2'S,4'S)-2-(2-(5-cyano-3,4-dihydroxybenzoylaminomethyl)pyrrolidin-4-ylthio)-6-(1-hydroxyethyl)-1-methyulcarbapenem-3carboxylic acid]: the MIC in assay [1] came to 0.25 µg/mL (≈ 0.497 µM); in assay [2] it was 0.03 µg/mL (≈ 0.0597 µM); in [3] it was 0.25 µg/mL (≈ 0.497 µM); in assay [4] it was 0.5 µg/mL (≈ 0.995 µM); in assay [5], 0.03 µg/mL (≈ 0.0597 µM); in [6], 0.125 µg/mL (≈ 0.249 µM). Also, the MIC was found to be 0.06 µg/mL (≈ 0.119 µM) in [7]; 8 ng/mL (≈ 0.0159 µM) in assay [8]; 0.125 µg/mL (≈ 0.249 µM) in assay [9]; 0.125 µg/mL (≈ 0.249 µM) in [10]; 4 µg/mL (≈ 7.96 µM) in [11].
